What was measured:
FGFR4 = target: T1, FGFR4 (Homo sapiens, UniProt P22455); test: Kinase binding assay (kinase-tagged T7 phage, qPCR), Kd; conditions: read-out: FGFR4 (Kd nM)
T1 construct: made in house; host or cells: E. coli derived from BL21, infected with T7 phage

FGFR3 = target: T2, FGFR3 (Homo sapiens, UniProt P22607); test: as above; conditions: read-out: FGFR3 (Kd nM)
T2 construct: made in house; host or cells: E. coli derived from BL21, infected with T7 phage

BCR-FGFR1 Ba/F3 = target: T3, BCR-FGFR1 Ba/F3 (Homo sapiens, UniProt P11362); test: Ba/F3 cell viability assay (CellTiter-Glo 2.0); format: cell-based; conditions: Ba/F3 BCR-FGFR1 cells, 48 hours
T3 construct: host or cells: Ba/F3; the other entry of the earlier key: BCR (P11274, Breakpoint cluster region protein)
T3 sequence (P11362 478-767 limits assumed): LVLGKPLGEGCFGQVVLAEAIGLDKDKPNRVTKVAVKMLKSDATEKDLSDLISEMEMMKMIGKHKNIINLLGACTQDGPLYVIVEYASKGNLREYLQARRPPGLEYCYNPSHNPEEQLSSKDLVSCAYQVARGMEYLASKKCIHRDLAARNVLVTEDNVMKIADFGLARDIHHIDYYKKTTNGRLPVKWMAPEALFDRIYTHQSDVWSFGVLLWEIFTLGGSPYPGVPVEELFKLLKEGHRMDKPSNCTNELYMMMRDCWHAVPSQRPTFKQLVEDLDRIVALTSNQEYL
From the text: (§1) Experimental Purpose: Recombinant kinase fusions are transduced into parental Ba/F3, which becomes dependent upon this constitutive kinase activity for IL3-independent survival. Inhibition of kinase activity leads to cell death, which is monitored using CellTiter-Glo® 2.0 (Promega) which measures intracellular ATP concentration that in turn serves as a marker for viability. BCR-FGFR4 Ba/F3, BCR-FGFR1 Ba/F3 and FGFR3-BAIAP2L1 Ba/F3 were obtained from Advanced Cellular Dynamics (Seattle, WA)
(§2) Cell Viability Assay Procedure: Cell Titer-Glo® 2.0 Luminescent cell viability assay reagent was purchased from Promega (Madison, WI). BCR-FGFR4 Ba/F3, BCR-FGFR1 Ba/F3 and FGFR3-BAIAP2L1 Ba/F3 cells were cultured in RPMI1640 media supplemented with 10% fetal bovine serum. Cultures were maintained at 37° C. in a humidified atmosphere of 5% CO2 and 95% air.
(§3) Cells were plated in 96-well clear bottom/white plates (Corning #3903) at 10,000 cells/well in 100 μl of media, incubated overnight. The next day, test compound DMSO stock solutions were made at 10 mM and 2 μM final concentration. Compounds were then added to cells in a 9-dose, 10-fold dilution series starting at 30 μM with an HP 300e Digital Dispenser (each dose was applied in triplicate). DMSO was backfilled to each well up to 301 nL total volume of test compound+DMSO, and a total of 301 nL DMSO was added to a control/no test compound well in triplicate. The cells in cell culture plates were incubated with the compounds at 37° C. and 5% CO2 for 48 hours. Then 50 μl of Cell Titer Glo 2.0 reagent was added to each well of the cell culture plates. The contents were covered from light and mixed on an orbital shaker at room temperature for 10 min. Luminescence was recorded by a Synergy H1 Microplate Reader (Biotek, Winooski, VT). Cells were assessed as a percentage of DMSO only treated control cells. Curves were plotted and IC50 values were calculated using the GraphPad Prism 8 program based on a sigmoidal dose-response equation (4 parameter).

FGFR3-BAIAP2L1 Ba/F3 = target: T4, FGFR3-BAIAP2L1 Ba/F3 (Homo sapiens, UniProt P22607); test: Ba/F3 cell viability assay (CellTiter-Glo 2.0); format: cell-based; conditions: Ba/F3 FGFR3-BAIAP2L1 cells, 48 hours
T4 construct: host or cells: Ba/F3; the other entry of the earlier key: BAIAP2L1 (Q9UHR4, BAR/IMD domain-containing adapter protein 2-like 1)
T4 sequence (P22607 397-758 limits assumed): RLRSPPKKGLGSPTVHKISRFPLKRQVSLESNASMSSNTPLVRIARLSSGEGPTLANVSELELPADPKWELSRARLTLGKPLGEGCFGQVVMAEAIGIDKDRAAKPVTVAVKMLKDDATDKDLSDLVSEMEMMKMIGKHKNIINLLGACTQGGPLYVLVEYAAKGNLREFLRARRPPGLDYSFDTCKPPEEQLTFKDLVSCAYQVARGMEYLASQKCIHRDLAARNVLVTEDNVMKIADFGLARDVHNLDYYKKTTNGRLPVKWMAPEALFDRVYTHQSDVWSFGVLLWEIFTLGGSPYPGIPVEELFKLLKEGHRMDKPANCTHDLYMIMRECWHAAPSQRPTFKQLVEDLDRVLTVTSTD
From the text: as §1, §2, §3

FGFR1 = target: T5, FGFR1 (Homo sapiens, UniProt P11362); test: Kinase binding assay (kinase-tagged T7 phage, qPCR), Kd; conditions: read-out: FGFR1 (Kd nM)
T5 construct: made in house; host or cells: E. coli derived from BL21, infected with T7 phage
T5 sequence (P11362 22-822): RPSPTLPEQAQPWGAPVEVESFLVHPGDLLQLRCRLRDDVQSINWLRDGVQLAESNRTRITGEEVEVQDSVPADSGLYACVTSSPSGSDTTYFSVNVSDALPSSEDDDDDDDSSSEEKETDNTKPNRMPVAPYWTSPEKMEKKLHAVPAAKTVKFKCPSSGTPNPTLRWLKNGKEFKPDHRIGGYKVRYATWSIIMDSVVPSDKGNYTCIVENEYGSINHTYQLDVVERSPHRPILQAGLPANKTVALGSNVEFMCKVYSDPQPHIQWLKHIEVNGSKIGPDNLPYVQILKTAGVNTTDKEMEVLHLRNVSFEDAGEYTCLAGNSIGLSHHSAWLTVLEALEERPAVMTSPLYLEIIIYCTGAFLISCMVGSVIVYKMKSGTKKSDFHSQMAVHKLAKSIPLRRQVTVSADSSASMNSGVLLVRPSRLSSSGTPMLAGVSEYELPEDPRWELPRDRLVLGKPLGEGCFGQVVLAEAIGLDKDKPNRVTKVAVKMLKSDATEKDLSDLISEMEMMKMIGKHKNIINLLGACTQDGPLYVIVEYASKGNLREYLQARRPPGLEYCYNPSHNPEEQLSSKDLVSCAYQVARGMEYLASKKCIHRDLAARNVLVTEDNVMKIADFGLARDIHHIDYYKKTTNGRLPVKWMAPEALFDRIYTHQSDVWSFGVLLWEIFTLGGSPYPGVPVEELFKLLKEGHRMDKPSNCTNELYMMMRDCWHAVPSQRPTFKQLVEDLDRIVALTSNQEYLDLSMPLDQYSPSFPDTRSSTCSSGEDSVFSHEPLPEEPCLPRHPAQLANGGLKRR

FGFR2 = target: T6, FGFR2 (Homo sapiens, UniProt P21802); test: as above; conditions: read-out: FGFR2 (Kd nM)
T6 construct: made in house; host or cells: E. coli derived from BL21, infected with T7 phage
T6 sequence (P21802 22-821): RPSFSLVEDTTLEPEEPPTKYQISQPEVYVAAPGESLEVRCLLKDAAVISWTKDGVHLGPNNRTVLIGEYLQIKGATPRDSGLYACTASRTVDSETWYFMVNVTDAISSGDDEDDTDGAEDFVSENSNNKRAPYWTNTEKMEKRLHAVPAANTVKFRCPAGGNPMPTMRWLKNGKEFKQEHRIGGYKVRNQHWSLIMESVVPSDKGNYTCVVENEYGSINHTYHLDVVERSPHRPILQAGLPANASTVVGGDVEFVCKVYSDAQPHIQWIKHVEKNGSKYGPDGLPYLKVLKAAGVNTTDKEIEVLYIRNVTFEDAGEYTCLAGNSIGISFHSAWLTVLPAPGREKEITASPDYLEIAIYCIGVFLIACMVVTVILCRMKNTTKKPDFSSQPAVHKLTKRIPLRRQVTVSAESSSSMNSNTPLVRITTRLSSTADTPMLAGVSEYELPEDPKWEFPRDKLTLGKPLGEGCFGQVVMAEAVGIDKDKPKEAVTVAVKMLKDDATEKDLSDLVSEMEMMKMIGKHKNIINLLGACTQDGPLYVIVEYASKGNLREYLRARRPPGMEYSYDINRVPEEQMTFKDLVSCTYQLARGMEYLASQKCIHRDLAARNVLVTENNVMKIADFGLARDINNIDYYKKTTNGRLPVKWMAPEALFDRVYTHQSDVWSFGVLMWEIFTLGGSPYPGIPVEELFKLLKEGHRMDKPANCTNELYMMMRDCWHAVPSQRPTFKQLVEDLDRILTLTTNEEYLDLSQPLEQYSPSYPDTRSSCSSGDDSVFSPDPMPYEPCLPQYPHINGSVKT

T2 sequence (P22607 23-806): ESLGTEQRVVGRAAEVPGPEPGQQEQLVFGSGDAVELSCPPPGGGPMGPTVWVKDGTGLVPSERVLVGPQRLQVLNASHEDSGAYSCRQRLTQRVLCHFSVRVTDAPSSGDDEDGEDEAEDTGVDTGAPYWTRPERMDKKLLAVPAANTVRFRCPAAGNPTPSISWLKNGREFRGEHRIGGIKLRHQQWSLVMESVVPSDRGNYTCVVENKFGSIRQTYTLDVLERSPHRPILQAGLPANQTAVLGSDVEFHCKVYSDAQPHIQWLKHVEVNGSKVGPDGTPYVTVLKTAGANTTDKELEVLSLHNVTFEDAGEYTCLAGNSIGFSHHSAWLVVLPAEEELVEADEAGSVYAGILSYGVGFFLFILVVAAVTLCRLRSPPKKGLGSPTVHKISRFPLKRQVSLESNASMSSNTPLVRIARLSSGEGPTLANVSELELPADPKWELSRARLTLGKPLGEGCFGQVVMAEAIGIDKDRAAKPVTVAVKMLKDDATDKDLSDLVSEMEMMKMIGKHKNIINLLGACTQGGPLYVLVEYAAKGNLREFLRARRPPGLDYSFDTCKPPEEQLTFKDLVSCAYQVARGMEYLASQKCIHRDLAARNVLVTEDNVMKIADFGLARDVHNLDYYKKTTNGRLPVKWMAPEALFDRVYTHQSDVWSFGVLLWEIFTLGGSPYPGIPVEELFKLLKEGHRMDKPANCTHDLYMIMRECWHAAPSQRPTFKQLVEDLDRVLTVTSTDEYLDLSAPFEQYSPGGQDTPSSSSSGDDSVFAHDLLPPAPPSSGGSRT
T1 sequence (P22455 22-802): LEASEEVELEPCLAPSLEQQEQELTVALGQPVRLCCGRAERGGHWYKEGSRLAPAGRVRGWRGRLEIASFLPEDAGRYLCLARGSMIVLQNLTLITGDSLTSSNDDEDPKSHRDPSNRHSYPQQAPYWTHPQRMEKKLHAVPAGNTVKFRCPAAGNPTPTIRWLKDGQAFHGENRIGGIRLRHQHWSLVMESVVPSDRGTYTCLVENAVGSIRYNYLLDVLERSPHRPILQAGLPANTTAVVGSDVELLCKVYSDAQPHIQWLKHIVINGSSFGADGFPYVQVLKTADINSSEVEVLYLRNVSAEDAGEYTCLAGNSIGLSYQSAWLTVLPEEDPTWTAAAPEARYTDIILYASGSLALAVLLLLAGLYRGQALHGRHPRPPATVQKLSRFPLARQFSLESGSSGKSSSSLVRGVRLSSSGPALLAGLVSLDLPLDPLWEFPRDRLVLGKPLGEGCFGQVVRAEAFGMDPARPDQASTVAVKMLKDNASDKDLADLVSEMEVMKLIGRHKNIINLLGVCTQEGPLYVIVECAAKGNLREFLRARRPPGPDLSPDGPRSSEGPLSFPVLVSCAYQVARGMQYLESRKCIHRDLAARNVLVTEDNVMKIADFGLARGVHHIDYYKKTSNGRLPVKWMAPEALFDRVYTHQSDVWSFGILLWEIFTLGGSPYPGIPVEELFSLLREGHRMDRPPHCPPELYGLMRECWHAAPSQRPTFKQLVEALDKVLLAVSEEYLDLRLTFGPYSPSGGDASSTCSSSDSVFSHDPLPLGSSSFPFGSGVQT

Row | SMILES | Kd (FGFR4) | Kd (FGFR3) | Kd (FGFR1) | Kd (FGFR2) | IC50 (BCR-FGFR1 Ba/F3) | IC50 (FGFR3-BAIAP2L1 Ba/F3)
1 | C[C@@H](Oc1ccc2[nH]nc(-c3ccc(N)nc3)c2c1)c1c(Cl)cncc1Cl [Example 8, (R)-5-(5-(1-(3,5-Dichloropyridin-4-yl)ethoxy)-1H-indazol-3-yl)pyridin-2-amine] | 0.1 to 100 nM | 0.1 to 100 nM | 0.1 to 100 nM | 0.1 to 100 nM | 0.1 to 100 nM | 0.1 to 100 nM
2 | CNC(=O)c1ccc(-c2n[nH]c3ccc(O[C@H](C)c4c(Cl)cncc4Cl)cc23)cn1 [Example 9, (R)-5-(5-(1-(3,5-Dichloropyridin-4-yl)ethoxy)-1H-indazol-3-yl)-N-methylpicolinamide] | 0.1 to 100 nM | 0.1 to 100 nM | 0.1 to 100 nM | 0.1 to 100 nM | 100 to 250 nM | 0.1 to 100 nM
3 | C[C@@H](Oc1ccc2[nH]nc(-c3ccc(NC(=O)CN(C)C)nc3)c2c1)c1c(Cl)cncc1Cl [Example 13, N-[5-[5-[(1R)-1-(3,5-dichloro-4-pyridyl)ethoxy]-1H-indazol-3-yl]-2-pyridyl]-2-(dimethylamino)-acetamide] | 0.1 to 100 nM | 0.1 to 100 nM | 0.1 to 100 nM | 0.1 to 100 nM | 0.1 to 100 nM | 0.1 to 100 nM
4 | C[C@@H](Oc1ccc2[nH]nc(-c3ccc(NC(=O)N4CCOCC4)nc3)c2c1)c1c(Cl)cncc1Cl [Example 16, N-[5-[5-[(1R)-1-(3,5-dichloro-4-pyridyl)ethoxy]-1H-indazol-3-yl]-2-pyridyl]morpholine-4-carboxamide] | 0.1 to 100 nM | 0.1 to 100 nM | 0.1 to 100 nM | 0.1 to 100 nM | 0.1 to 100 nM | 0.1 to 100 nM
5 | CCN1CCC(Oc2ncc(-c3n[nH]c4ccc(O[C@H](C)c5c(Cl)cncc5Cl)cc34)cc2C#N)CC1 [Example 119] | 0.1 to 100 nM | 0.1 to 100 nM | 0.1 to 100 nM | 0.1 to 100 nM | 250 to 1000 nM | 0.1 to 100 nM
6 | C[C@@H](Oc1ccc2[nH]nc(-c3cnc4c(c3)N(S(C)(=O)=O)CCO4)c2c1)c1c(Cl)cncc1Cl [Example 137, 7-[5-[(1R)-1-(3,5-dichloro-4-pyridyl)ethoxy]-1H-indazol-3-yl]-1-methylsulfonyl-2,3-dihydropyrido[2,3-b][1,4]oxazine] | 0.1 to 100 nM | 0.1 to 100 nM | 250 to 1000 nM | 100 to 250 nM | 250 to 1000 nM | 0.1 to 100 nM
7 | Cc1ncc(Cl)c([C@@H](C)Oc2ccc3[nH]nc(-c4ccc(O[C@@H]5CCOC5)nc4)c3c2)c1Cl [Example 147, 5-((R)-1-(3,5-Dichloro-2-methylpyridin-4-yl)ethoxy)-3-(6-(((R)-tetrahydrofuran-3-yl)oxy)pyridin-3-yl)-1H-indazole] | 0.1 to 100 nM | 0.1 to 100 nM | 0.1 to 100 nM | 0.1 to 100 nM | > 1000 nM | 100 to 250 nM
8 | Cc1cc(-c2n[nH]c3ccc(O[C@H](C)c4c(Cl)cnc(C)c4Cl)cc23)cnc1O[C@@H]1CCOC1 [Example 148, 5-((R)-1-(3,5-Dichloro-2-methylpyridin-4-yl)ethoxy)-3-(5-methyl-6-(((R)-tetrahydrofuran-3-yl)oxy)pyridin-3-yl)-1H-indazole] | 0.1 to 100 nM | 0.1 to 100 nM | 250 to 1000 nM | 250 to 1000 nM | 250 to 1000 nM | 100 to 250 nM
9 | Cc1ncc(Cl)c([C@@H](C)Oc2ccc3[nH]nc(-c4ccc(O[C@H]5CCOC5)nc4)c3c2)c1Cl [Example 150, 5-[(1R)-1-(3,5-dichloro-2-methyl-4-pyridyl)ethoxy]-3-[6-[(3S)-tetrahydrofuran-3-yl]oxy-3-pyridyl]-1H-indazole] | 0.1 to 100 nM | 0.1 to 100 nM | 0.1 to 100 nM | 0.1 to 100 nM | 250 to 1000 nM | 0.1 to 100 nM
10 | Cc1cc(-c2n[nH]c3ccc(O[C@H](C)c4c(Cl)cncc4Cl)cc23)cnc1NC1CCOCC1 [Example 151, (R)-5-(5-(1-(3,5-Dichloropyridin-4-yl)ethoxy)-1H-indazol-3-yl)-3-methyl-N-(tetrahydro-2H-pyran-4-yl)pyridin-2-amine] | 0.1 to 100 nM | 0.1 to 100 nM | 100 to 250 nM | 100 to 250 nM | 250 to 1000 nM | 0.1 to 100 nM
11 | C[C@@H](Oc1ccc2[nH]nc(-c3ccc(OC4CC5(C4)CN(S(C)(=O)=O)C5)nc3)c2c1)c1c(Cl)cncc1Cl [Example 152, (R)-5-(1-(3,5-dichloropyridin-4-yl)ethoxy)-3-(6-((2-(methylsulfonyl)-2-azaspiro[3.3]heptan-6-yl)oxy)pyridin-3-yl)-1H-indazole] | 0.1 to 100 nM | 0.1 to 100 nM | 0.1 to 100 nM | 0.1 to 100 nM | 100 to 250 nM | 0.1 to 100 nM
12 | Cc1cc(-c2n[nH]c3ccc(O[C@H](C)c4c(Cl)cncc4Cl)cc23)cnc1N[C@H]1CCOC1 [Example 153, 5-(5-((R)-1-(3,5-dichloropyridin-4-yl)ethoxy)-1H-indazol-3-yl)-3-methyl-N-((S)-tetrahydrofuran-3-yl)pyridin-2-amine] | 0.1 to 100 nM | 0.1 to 100 nM | 0.1 to 100 nM | 0.1 to 100 nM | 250 to 1000 nM | 0.1 to 100 nM

Continued, in another order:

Row | Kd (FGFR4) | Kd (FGFR3) | Kd (FGFR1) | Kd (FGFR2) | SMILES | IC50 (BCR-FGFR1 Ba/F3) | IC50 (FGFR3-BAIAP2L1 Ba/F3)
13 | 0.1 to 100 nM | 0.1 to 100 nM | 100 to 250 nM | 100 to 250 nM | COc1c(F)cc(-c2n[nH]c3ccc(O[C@H](C)c4c(C)cnnc4C)cc23)cc1C#N [Example 82, 5-[5-[(1R)-1-(3,5-dimethylpyridazin-4-yl)ethoxy]-1H-indazol-3-yl]-3-fluoro-2-methoxy-benzonitrile] |  | 100 to 250 nM
14 | 0.1 to 100 nM | 0.1 to 100 nM | 0.1 to 100 nM | 0.1 to 100 nM | C[C@@H](Oc1ccc2[nH]nc(-c3ccc4c(c3)C(=O)CC3(CCNCC3)O4)c2c1)c1c(Cl)cncc1Cl [Example 92, (R)-6-(5-(1-(3,5-Dichloropyridin-4-yl)ethoxy)-1H-indazol-3-yl)spiro[chromane-2,4′-piperidin]-4-one] | 250 to 1000 nM | 0.1 to 100 nM
15 | 0.1 to 100 nM | 0.1 to 100 nM | 0.1 to 100 nM | 0.1 to 100 nM | CCN1CCC2(CC1)CC(=O)c1cc(-c3n[nH]c4ccc(O[C@H](C)c5c(Cl)cncc5Cl)cc34)ccc1O2 [Example 95, (R)-6-(5-(1-(3,5-Dichloropyridin-4-yl)ethoxy)-1H-indazol-3-yl)-1′-ethylspiro[chromane-2,4′-piperidin]-4-one] | 100 to 250 nM | 0.1 to 100 nM
16 | 0.1 to 100 nM | 0.1 to 100 nM | 0.1 to 100 nM | 0.1 to 100 nM | CCN1CCC2(CC1)OCc1cc(-c3n[nH]c4ccc(O[C@H](C)c5c(Cl)cncc5Cl)cc34)ccc1O2 [Example 96, (R)-6-(5-(1-(3,5-Dichloropyridin-4-yl)ethoxy)-1H-indazol-3-yl)-1′-ethyl-4H-spiro[benzo[d][1,3]dioxine-2,4′-piperidine]] | 100 to 250 nM | 0.1 to 100 nM
17 | 0.1 to 100 nM | 0.1 to 100 nM | 0.1 to 100 nM | 0.1 to 100 nM | CCN1CCC2(CC1)OCc1cc(-c3n[nH]c4ccc(O[C@H](C)c5c(C)cnnc5C)cc34)ccc1O2 [Example 106, (R)-6-(5-(1-(3,5-dimethylpyridazin-4-yl)ethoxy)-1H-indazol-3-yl)-1′-ethyl-4H-spiro[benzo[d][1,3]dioxine-2,4′-piperidine]] | 0.1 to 100 nM | 0.1 to 100 nM
18 | 0.1 to 100 nM | 0.1 to 100 nM | 0.1 to 100 nM | 0.1 to 100 nM | CCN1CCC2(CCc3cc(-c4n[nH]c5ccc(O[C@H](C)c6c(C)cnnc6C)cc45)ccc3O2)CC1 [Example 111, (R)-6-(5-(1-(3,5-dimethylpyridazin-4-yl)ethoxy)-1H-indazol-3-yl)-1′-ethylspiro[chroman-2,4′-piperidine]] | 0.1 to 100 nM | 0.1 to 100 nM
19 | 0.1 to 100 nM | 0.1 to 100 nM | 0.1 to 100 nM | 0.1 to 100 nM | Cc1cnnc(C)c1[C@@H](C)Oc1ccc2[nH]nc(-c3ccc4c(c3)COC3(CCN(C(C)C)CC3)O4)c2c1 [Example 112, (R)-6-(5-(1-(3,5-dimethylpyridazin-4-yl)ethoxy)-1H-indazol-3-yl)-1′-isopropyl-4H-spiro[benzo[d][1,3]dioxine-2,4′-piperidine]] | 0.1 to 100 nM | 0.1 to 100 nM

Reference: US20240316022A1 (TYRA BIOSCIENCES, INC., priority 2021, published 2024)
